From paper PMC12040169 (PLOS Biology, 2025)

Experiment: in vitro
Conditions: human, hela cells, % viability

| SMILES | viability at 28.5 h, 10 µM [%] |
| --- | --- |
| CN1CCCC(C(O)c2ccccc2)C1 (stereo not shown) [CBK012472] | 96.9 |
| CN(C)CCOC1OC(CO)C(O)C(O)C1O (stereo not shown) [CBK012476C] | 94.4 |
| Cc1[nH]c2c(C(=O)O)cccc2c1-c1ccccc1 [CBK012486] | 103 |
| O=C(NCCNCc1ccccc1)c1ccccc1 [CBK012505] | 119 |
| CCC1=C(c2ccc(Cl)cc2)CCC(C(=O)NCCCN(C)C)C1C (stereo not shown) [CBK012578] | 74.1 |
| CN(C(=O)Cc1ccccc1)c1ccccc1 [CBK012581] | 103 |
| CN(C)CCn1c(=O)c2c(ncn2C)n(C)c1=O [CBK012590] | 115 |
| CC(=O)NCC1CN(c2ccc3c(c2)CCN3C(=O)OC(C)(C)C)C(=O)O1 (stereo not shown) [CBK012600] | 99.7 |
| Cn1c(-c2cc(=O)c(C(=O)O)c[nH]2)n[nH]c1=O [CBK012603] | 79.6 |
| N#C/N=C(/Nc1cccnc1)Oc1ccccc1 [CBK012612] | 87.3 |
| O=C(c1ccccc1Nc1cccc(C(F)(F)F)c1)N1CCN(c2ccccn2)CC1 [CBK012634] | 94.4 |
| Clc1ccc(-n2ccnc2)cc1 [CBK012658] | 107 |
| COc1ccc(C2N(N3C(=O)CC(=O)NC3=O)C(=O)CS2(=O)=O)cc1OC (stereo not shown) [CBK012702] | 94.8 |
| Cc1cc(N2CCOCC2)nc(N)n1 [CBK012710] | 99.1 |
| O=c1cc(O)cc(CCc2ccccc2)o1 [CBK012714] | 117 |
| O=C(NCO)c1ccccc1O [CBK012717] | 93.9 |
| CN(c1cncc(Cl)n1)C1CCN(Cc2ccccc2)CC1 [CBK012767F] | 77.7 |
| CCC1(CCc2ccccc2)CC(O)=CC(=O)O1 (stereo not shown) [CBK012790] | 98.5 |
| CCN(Cc1ccccc1)C(=O)Nc1ccccc1 [CBK012816] | 94.9 |
| O=C(c1ccccc1)N1CCCCC1 [CBK012821] | 99.1 |
| Cc1nnsc1[S+]([O-])c1ccc(Br)cc1 (stereo not shown) [CBK012927] | 96.1 |
| Cn1c(C(O)c2ccccc2)n[nH]c1=S (stereo not shown) [CBK012984] | 117 |
| O=C(O)CCSc1cccc(C(F)(F)F)c1 [CBK012986] | 111 |

| SMILES | viability at 28.5 h, 10 µM [%] |
| --- | --- |
| COc1ccc(CNCCN)cc1 [CBK013010] | 98.2 |
| CC(C)CC1(C(CN2C(=O)c3ccccc3C2=O)C(=O)NO)CCN(CCc2ccccc2)C1=O (stereo not shown) [CBK013029] | 103 |
| CC(=O)NC[C@H]1CN(c2ccc(C3CNC3)c(F)c2)C(=O)O1 [CBK013035] | 82.8 |
| O=C(O)c1ccc(C(=O)Nc2ccc3c(=O)n4c(nc3c2)/C(=C/c2ccccc2)CC4)cc1 [CBK013048] | 82.3 |
| COc1ccccc1OCCNC1CCc2cc(Cl)ccc2C1 (stereo not shown) [CBK013067C] | 93.2 |
| CCCCNC(=O)CCCN(CC)CCC1=CC2(CCCC2)c2ccccc21 [CBK013232] | 91.7 |
| O=C(COc1ccc(Cl)cc1)NCCc1ccc(S(=O)(=O)NC(=O)NC2CCCCC2)cc1 [CBK013261] | 92.4 |
| NC1CCN(C(=O)c2cc3ccccc3[nH]2)CC1 [CBK013294] | 89.7 |
| CC(C)N(CC(=O)N(c1ccccc1)c1ccccc1)C(C)C [CBK013303C] | 96.6 |
| c1ccc2c(c1)/C(=N/OCCCN1CCCCC1)CC21CCCCC1 [CBK013321] | 108 |
| CN(C)CCCO/N=C1\CC2(CCCC2)c2ccccc21 [CBK013331] | 80.7 |
| Cc1cc(O)ccc1C(CC(=O)O)c1ccccc1 (stereo not shown) [CBK013350] | 100 |
| COC1=CC2CCNC(CCCCC3NCCc4cc(OC)c(OC)cc43)C2C=C1OC (stereo not shown) [CBK013354] | 87 |
| Cc1cc(C(C)(C)C)cc(C)c1S(=O)(=O)NCCSCCN [CBK013357] | 97.8 |
| Cc1cc(C)c(S(=O)(=O)NCCSCCC(=O)O)c(C)c1 [CBK013358] | 95.7 |
| c1ccc(Nc2cncc(N3CCNCC3)n2)cc1 [CBK013389] | 100 |
| FC(F)(F)c1cnc(N2CCNCC2)c(Cl)c1 [CBK013400] | 92.9 |
| CC(C)(C)OC(=O)N1CCN(c2nccnc2Cl)CC1 [CBK013554] | 102 |
| COc1c(C(=O)O)cc(C)c2c1CCC2C (stereo not shown) [CBK013617] | 101 |
| COc1cc2cc(O)c(C)c(NCc3ccco3)c2cc1OC [CBK013723] | 84.4 |
| CC1CC(NC(=S)NCc2csc3ccccc23)CC(C)(C)C1 (stereo not shown) [CBK013824] | 90.9 |
| CCn1c(CN2CCN(Cc3ccc4c(c3)OCO4)CC2)n[nH]c1=S [CBK013828] | 105 |
| CN(C)c1cccc(OCCn2ccnc(N3CCNCC3)c2=O)c1 [CBK013866F] | 114 |

| SMILES | viability at 28.5 h, 10 µM [%] |
| --- | --- |
| S=c1[nH]nc(CN2CCSCC2)n1-c1ccc(Cl)cc1 [CBK013868] | 105 |
| CC(C)(N)CN(Cc1ccccc1)C(=O)/C=C/c1ccccc1 [CBK013891T] | 90.8 |
| Clc1ccc(OCCOc2nccnc2N2CCNCC2)cn1 [CBK014049G] | 92.5 |
| CN(C)S(=O)(=O)N1CC2(CCN(C(=O)[C@@H]3CN(C(=O)C(C)(C)NC(=O)OC(C)(C)C)C[C@H]3c3cc4ccccc4o3)CC2)c2ccccc21 [CBK014088] | 89 |
| Cc1c(Cl)cccc1S(=O)(=O)N1CCCN(c2nc3ccc(Cl)cc3s2)CC1 [CBK014131] | 95.6 |
| O=S(=O)(Nc1nc(-c2sccc2Cl)cs1)c1cc(Cl)ccc1Cl [CBK014147] | 94.2 |
| O=C(c1ccccc1)c1cccc(OCCOc2nccnc2N2CCNCC2)c1 [CBK014250G] | 96.1 |
| FC(F)(F)Oc1cccc(OCCOc2nccnc2N2CCNCC2)c1 [CBK014323G] | 100 |
| OCCOc1cccc(OCCOc2nccnc2N2CCNCC2)c1 [CBK014339G] | 112 |
| CC1(C)Cc2c(oc(N)c2C#N)CO1 [CBK014395] | 101 |
| S=c1[nH]nc(COc2ccccc2)n1C1CCCCC1 [CBK014411] | 96.2 |
| COCCN(C(=O)CCC(=O)NCCc1ccccc1)C1CCN(C)CC1 [CBK014576] | 96.9 |
| Cn1c(S)nnc1-c1ccccc1O [CBK014577] | 111 |
| CC(C)(N)C(=O)N1CC(C(=O)NCCN(Cc2ccccc2)S(C)(=O)=O)C(c2ccccc2)C1 (stereo not shown) [CBK014706T] | 93.3 |
| c1ccc2c(COc3nccnc3N3CCNCC3)ccnc2c1 [CBK014866] | 90.3 |
| Oc1ccc(-c2n[nH]c(=S)n2-c2ccccc2)cc1 [CBK014887] | 113 |
| c1cncc(CCOc2nccnc2N2CCNCC2)c1 [CBK014992] | 101 |
| CC(=O)Nc1ccc(/N=C/c2ccc(Cl)cc2)cc1 [CBK015166] | 92.3 |
| COc1ccc(CCNC(=S)NC2CC3CCC2C3)cc1OC (stereo not shown) [CBK015410] | 90.8 |
| COc1cccc(CNC(C(=O)O)c2ccc3c(c2)OCO3)c1 (stereo not shown) [CBK015420D] | 89.1 |
| O=C(Nc1ccccn1)Nc1ccccn1 [CBK015518] | 95.5 |
| CCCc1cc(C(N)=O)cc(CCC)c1OCC [CBK015537] | 98 |
| CC(CN(C)C)C(=O)c1cn(C)c2ccccc12 (stereo not shown) [CBK015540] | 102 |

Same assay, conditions: human, hela cells, % viability, bulk resorufin, single well

| SMILES | viability at 28.5 h, 10 µM [%] |
| --- | --- |
| Cc1ccc(Cl)cc1N1CCNCC1 [CBK013402] | 94.6 |
